US8492582B2, “N-acyl anthranilic acid derivative or salt thereof” (Toyama Chemical Co., Ltd., priority 2009, dated 2013)
Counter-ions that a name gives are not always drawn.

test system: type I collagen α1 chain mRNA in WI-38 cells; assay: Type I collagen α1 chain mRNA expression inhibition test; format: cell-based; details: Homo sapiens, WI-38, 24 h, read-out: Inhibition rate (%) at 10 μmol/L
Experimental: Human embryonic lung fibroblast cell line WI-38 cells were suspended in a Dulbecco's modified Eagle's medium containing 10% fetal calf serum, and 7.5×10^4 cells were inoculated on a 12-well plate and cultured for 3 days, or 1.5×10^5 cells were inoculated and cultured for 2 days. After the growth of the cells to a subconfluent state, the culture medium was changed to a Dulbecco's modified Eagle's medium containing 0.4% fetal calf serum and 50 μg/mL ascorbic acid, and the cells were further cultured for 24 hours. Then, a test compound was added thereto, and, one hour later, TGF-β1 was added at a final concentration of 1 ng/mL. Twenty-four hours after the addition, the total RNA was extracted from the cells using an RNA extraction kit (SV Total RNA Isolation System, Promega), and cDNA was synthesized using a reverse transcriptase (ReverTra Ace, TOYOBO). The expression level of the type I collagen al chain mRNA was analyzed with a real-time PCR instrument (ABI PRISM 7700 Sequence Detection System, Applied Biosystems) by a real-time PCR method using a premix reagent of real-time PCR (SYBR Premix Ex Taq or SYBR Premix Ex Taq II (Perfect Real Time), TaKaRa). A PCR reaction was conducted with diluted cDNA as a template, using primers specific for a type I collagen α1 chain gene or a GAPDH gene as an internal standard, and the reaction product was measured. The PCR reaction was conducted by incubation at 95° C. for 10 seconds and 45 cycles of denaturation at 95° C. for 5 seconds and annealing/extension at 60° C. for 30 seconds. The expression level of the type I collagen α1 chain mRNA was corrected with GAPDH and was expressed as a relative value when the expression level obtained in the absence of the test compound was defined as 100%.

Going from `O=C(Nc1cc(-c2ccccc2)ccc1C(=O)O)c1ccc(-c2cccnc2)cc1O` [Example 13a, sodium 2-(2-hydroxy-4-(pyridin-3-yl)benzamido)-4-phenylbenzoate] to `O=C(Nc1cc(-c2ccoc2)ccc1C(=O)O)c1cc(-c2cccnc2)ccc1O` [Example 46a, sodium 4-(furan-3-yl)-2-(2-hydroxy-5-(pyridin-3-yl)benzamido)benzoate], the inhibition at 10 µM falls from 93% to 91%.

First: CN(C)CCN(C)c1ccc(C(=O)Nc2cc(-c3ccccc3)ccc2C(=O)O)c(O)c1 [Example 97a, sodium 2-(4-((2-(dimethylamino)ethyl)(methyl)amino)-2-hydroxybenzamido)-4-phenylbenzoate]
Second: O=C(Nc1cc(-c2ccsc2)ccc1C(=O)O)c1cncc(-c2ccccc2)c1 [46b, sodium 2-(5-phenylpyridine-3-carboxamido)-4-(thiophen-3-yl)benzoate]
The inhibition at 10 µM of the first is higher: 83% for the first, 69% for the second.

`O=C(Nc1cc(-c2ccccc2F)ccc1C(=O)O)c1cncc(-c2ccccc2)c1` [44b, sodium 4-(2-fluorophenyl)-2-(5-phenylpyridine-3-carboxamido)-benzoate] was tested, and the inhibition at 10 µM was 93%.

same assay, conditions: Homo sapiens; 10 μmol/L test compound; WI-38 cells, TGF-β1 1 ng/mL, 24 hours; Table 4a; read-out: Inhibition rate (%) at 10 μmol/L

Going from `O=C(Nc1cc(-c2ccccc2)ccc1C(=O)O)c1cc(N2CCC2)ccc1O` [Example 86a, 2-(5-(Azetidin-1-yl)-2-hydroxybenzamido)-4-phenylbenzoic acid hydrochloride] to `O=C(Nc1cc(-c2ccccc2)ccc1C(=O)O)c1cc(N2CCSCC2)ccc1O` [Example 89a, 2-(2-hydroxy-5-(thiomorpholin-4-yl)benzamido)-4-phenylbenzoic acid], the inhibition at 10 µM rises from 85% to 98%.

First: O=C(Nc1cc(-c2ccccc2)ccc1C(=O)O)c1cc(-n2cccn2)ccc1O [Example 22a, 2-(2-hydroxy-5-(1H-pyrazol-1-yl)benzamido)-4-phenylbenzoic acid]
Second: O=C(Nc1cc(-c2ccccc2)ccc1C(=O)O)c1cc(-n2ccnc2)ccc1O [Example 34a, 2-(2-Hydroxy-5-(1H-imidazol-1-yl)benzamido)-4-phenylbenzoic acid hydrochloride]
The inhibition at 10 µM of the first is higher: 97% for the first, 82% for the second.

First: O=C(Nc1cc(-c2ccccc2)ccc1C(=O)O)c1cc(OCCN2CCNCC2)ccc1O [Example 144a, 2-(2-hydroxy-5-(2-(piperazin-1-yl)ethoxy)benzamido)-4-phenylbenzoic acid dimethanesulfonate]
Second: CCCN1CCN(CCOc2ccc(O)c(C(=O)Nc3cc(-c4ccccc4)ccc3C(=O)O)c2)CC1 [183a, 2-(2-hydroxy-5-(2-(4-propylpiperazin-1-yl)ethoxy)benzamido)-4-phenylbenzoic acid dimethanesulfonate]
The inhibition at 10 µM of the first is higher: 96% for the first, 81% for the second.

Going from `CN(C)CCN(C)Cc1ccc(O)c(C(=O)Nc2cc(-c3ccccc3)ccc2C(=O)O)c1` [Example 134a, 2-(5-(((2-(dimethylamino)ethyl)(methyl)amino)methyl)-2-hydroxybenzamido)-4-phenylbenzoic acid] to `CN(C)CCOc1ccc(O)c(C(=O)Nc2cc(-c3ccccc3)ccc2C(=O)O)c1` [Example 109a, 2-(5-(2-(Dimethylamino)ethoxy)-2-hydroxybenzamido)-4-phenylbenzoic acid hydrochloride], the inhibition at 10 µM rises from 90% to 91%.

Going from `COc1ccccc1-c1ccc(C(=O)O)c(NC(=O)c2cc(-c3cccnc3)ccc2O)c1` [Example 37a, 2-(2-hydroxy-5-(pyridin-3-yl)benzamido)-4-(2-methoxyphenyl)benzoic acid] to `O=C(O)c1ccc(-c2ccccc2)cc1NC(=O)c1cccc(-c2cccnc2)c1O` [Example 16a, Sodium 2-(2-hydroxy-3-(pyridin-3-yl)benzamido)-4-phenylbenzoate], the inhibition at 10 µM falls from 94% to 80%.

Compared with `Cc1cccc(-c2ccc(C(=O)O)c(NC(=O)c3cc(N4CCCCC4)ccc3O)c2)c1` [Example 149a, 2-(2-Hydroxy-5-(piperidin-1-yl)benzamido)-4-(3-methylphenyl)benzoic acid], `Cc1cccc(-c2ccc(C(=O)O)c(NC(=O)c3cc(N4CCOCC4)ccc3O)c2)c1` [201a, 2-(2-Hydroxy-5-(morpholin-4-yl)benzamido)-4-(3-methylphenyl)benzoic acid] is lower in inhibition at 10 µM: 97% for the first, 94% for the second.

Compared with `CCN1CCC(c2ccc(O)c(C(=O)Nc3cc(-c4ccccc4)ccc3C(=O)O)c2)CC1` [222a, 2-(5-(1-ethylpiperidin-4-yl)-2-hydroxybenzamido)-4-phenylbenzoic acid], `O=C(Nc1cc(-c2ccccc2)ccc1C(=O)O)c1cc(C2CCN(CCO)CC2)ccc1O` [225a, 2-(2-hydroxy-5-(1-(2-hydroxyethyl)piperidin-4-yl)benzamido)-4-phenylbenzoic acid] is higher in inhibition at 10 µM: 85% for the first, 86% for the second.

First: O=C(Nc1cc(-c2ccco2)ccc1C(=O)O)c1cc(N2CCCCC2)ccc1O [Example 65a, 4-(furan-2-yl)-2-(2-hydroxy-5-(piperidin-1-yl)benzamido)benzoic acid methanesulfonate]
Second: COc1cccc(-c2ccc(C(=O)O)c(NC(=O)c3cc(N4CCOCC4)ccc3O)c2)c1 [204a, 2-(2-Hydroxy-5-(morpholin-4-yl)benzamido)-4-(3-methoxyphenyl)benzoic acid]
The inhibition at 10 µM of the first is lower: 71% for the first, 89% for the second.

First: CN1CCC(COc2ccc(O)c(C(=O)Nc3cc(-c4ccccc4)ccc3C(=O)O)c2)CC1 [189a, 2-(2-hydroxy-5-(1-methylpiperidin-4-ylmethoxy)benzamido)-4-phenylbenzoic acid hydrochloride]
Second: O=C(Nc1cc(-c2ccccc2)ccc1C(=O)O)c1cc(OCCN2CCC(CCO)CC2)ccc1O [180a, 2-(2-Hydroxy-5-(2-(4-(hydroxyethyl)piperidin-1-yl)ethoxy)benzamido)-4-phenylbenzoic acid hydrochloride]
The inhibition at 10 µM of the first is higher: 95% for the first, 85% for the second.

Going from `O=C(Nc1cc(-c2ccccc2)ccc1C(=O)O)c1cc(-c2ccccn2)ccc1O` [Example 27a, 2-(2-hydroxy-5-(pyridin-2-yl)benzamido)-4-phenylbenzoic acid] to `O=C(Nc1cc(-c2ccccc2)ccc1C(=O)O)c1cc(-c2ncccn2)ccc1O` [Example 29a, 2-(2-hydroxy-5-(pyrimidin-2-yl)benzamido)-4-phenylbenzoic acid], the inhibition at 10 µM falls from 98% to 90%.

Going from `CCN(CCO)CCOc1ccc(O)c(C(=O)Nc2cc(-c3ccccc3)ccc2C(=O)O)c1` [182a, 2-(5-(2-(Ethyl(2-hydroxyethyl)amino)ethoxy)-2-hydroxybenzamido)-4-phenylbenzoic acid hydrochloride] to `Cc1ccc(O)c(C(=O)Nc2cc(-c3ccccc3)ccc2C(=O)O)c1` [Example 4a, 2-(2-Hydroxy-5-methylbenzamido)-4-phenylbenzoic acid], the inhibition at 10 µM rises from 82% to 97%.

`COc1ccc(C(=O)Nc2cc(-c3ccccc3)ccc2C(=O)O)c(O)c1` [Example 6a, 2-(2-Hydroxy-4-methoxybenzamido)-4-phenylbenzoic acid] gave an inhibition at 10 µM of 95%.

same assay, conditions: Homo sapiens; 10 μmol/L test compound; WI-38 cells, TGF-β1 1 ng/mL, 24 hours; Table 4b; read-out: Inhibition rate (%) at 10 μmol/L

Going from `CNc1ccccc1-c1ccc(C(=O)O)c(NC(=O)c2cncc(-c3ccccc3)c2)c1` [12b, 4-(2-(Methylamino)phenyl)-2-(5-phenylpyridine-3-carboxamido)benzoic acid] to `CCOc1ccccc1-c1ccc(C(=O)O)c(NC(=O)c2cncc(-c3ccccc3)c2)c1` [38b, Sodium 4-(2-ethoxyphenyl)-2-(5-phenylpyridine-3-carboxamido)benzoate], the inhibition at 10 µM rises from 87% to 94%.

Going from `O=C(Nc1cc(-c2ccccc2OC(F)(F)F)ccc1C(=O)O)c1cncc(-c2ccccc2)c1` [40b, Sodium 2-(5-phenylpyridine-3-carboxamido)-4-(2-(trifluoromethoxy)phenyl)benzoate] to `Cn1cccc1-c1ccc(C(=O)O)c(NC(=O)c2cncc(-c3ccccc3)c2)c1` [45b, 4-(1-methyl-1H-pyrrol-2-yl)-2-(5-phenylpyridine-3-carboxamido)benzoic acid], the inhibition at 10 µM falls from 96% to 90%.

Going from `CCNc1cccc(-c2ccc(C(=O)O)c(NC(=O)c3cncc(-c4ccccc4)c3)c2)c1` [11b, 4-(3-(ethylamino)phenyl)-2-(5-phenylpyridine-3-carboxamido)benzoic acid] to `CN(C)c1cccc(-c2ccc(C(=O)O)c(NC(=O)c3cncc(-c4ccccc4)c3)c2)c1` [51b, 4-(3-(Dimethylamino)phenyl)-2-(5-phenylpyridine-3-carboxamido)benzoic acid], the inhibition at 10 µM rises from 80% to 92%.

Compared with `O=C(Nc1cc(-c2ccccc2)ccc1C(=O)O)c1ccc(-c2ccccc2)nc1` [3b, 4-phenyl-2-(6-phenylpyridine-3-carboxamido)benzoic acid], `O=C(Nc1cc(-c2ccccc2)ccc1C(=O)O)c1ccnc(-c2ccccc2)c1` [4b, 4-Phenyl-2-(2-phenylpyridine-4-carboxamido)benzoic acid] is higher in inhibition at 10 µM: 83% for the first, 93% for the second.

`O=C(Nc1cc(Nc2ccccc2)ccc1C(=O)O)c1cncc(-c2ccccc2)c1` [61b, 4-anilino-2-(5-phenylpyridine-3-carboxamido)benzoic acid] was tested, and the inhibition at 10 µM was 86%.
